Measured values: ChEMBL document CHEMBL1250451, “Mechanistic insights into a Ca2+-dependent family of alpha-mannosidases in a human gut symbiont” (Nat Chem Biol, 2010)

Legend:
Format in all cases: protein assay
[1] = biological target: T1, Alpha-1,2-mannosidase (BT_2199) (Bacteroides thetaiotaomicron) (UniProt Q8A5N9); assay: Activity of Bacteroides thetaiotaomicron GH92 alpha-mannosidase 2199 assessed as recovery of enzyme activity at 1 mM in presence of 7 mM Ca(2+) ions and in presence of 5 mM EDTA in 100 mM pH 7 MOPS buffer relative to enzyme activity in presence of calcium
T1 sequence (whole entry): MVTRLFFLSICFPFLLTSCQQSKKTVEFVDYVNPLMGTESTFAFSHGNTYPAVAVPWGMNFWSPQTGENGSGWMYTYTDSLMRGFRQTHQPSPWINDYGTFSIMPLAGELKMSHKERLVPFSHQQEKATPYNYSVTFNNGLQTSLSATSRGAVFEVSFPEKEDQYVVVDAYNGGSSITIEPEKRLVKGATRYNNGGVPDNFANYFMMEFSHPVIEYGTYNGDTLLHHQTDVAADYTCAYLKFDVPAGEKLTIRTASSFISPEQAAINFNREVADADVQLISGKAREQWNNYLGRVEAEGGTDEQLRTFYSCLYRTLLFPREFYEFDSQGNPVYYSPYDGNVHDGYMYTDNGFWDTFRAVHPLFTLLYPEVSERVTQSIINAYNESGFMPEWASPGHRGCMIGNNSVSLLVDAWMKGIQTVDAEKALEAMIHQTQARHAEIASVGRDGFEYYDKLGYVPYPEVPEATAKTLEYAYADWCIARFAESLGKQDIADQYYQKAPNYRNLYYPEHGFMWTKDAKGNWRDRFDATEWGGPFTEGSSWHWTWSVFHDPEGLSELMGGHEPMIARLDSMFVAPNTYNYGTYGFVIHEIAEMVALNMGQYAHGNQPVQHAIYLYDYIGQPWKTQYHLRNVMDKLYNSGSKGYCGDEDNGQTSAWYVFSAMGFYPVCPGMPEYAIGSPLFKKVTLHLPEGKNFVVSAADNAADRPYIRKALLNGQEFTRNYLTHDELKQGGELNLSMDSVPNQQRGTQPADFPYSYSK

[2] = biological target: T1, Alpha-1,2-mannosidase (BT_2199) (Bacteroides thetaiotaomicron); assay: Activity of Bacteroides thetaiotaomicron GH92 alpha-mannosidase 2199 assessed as recovery of enzyme activity at 1 mM in presence of 7 mM Mn(2+) ions and in presence of 5 mM EDTA in 100 mM pH 7 MOPS buffer relative to enzyme activity in presence of calcium
[3] = biological target: T1, Alpha-1,2-mannosidase (BT_2199) (Bacteroides thetaiotaomicron); assay: Activity of Bacteroides thetaiotaomicron GH92 alpha-mannosidase 2199 assessed as recovery of enzyme activity at 1 mM in presence of 7 mM Sr(2+) ions and in presence of 5 mM EDTA in 100 mM pH 7 MOPS buffer relative to enzyme activity in presence of calcium
[4] = biological target: T1, Alpha-1,2-mannosidase (BT_2199) (Bacteroides thetaiotaomicron); assay: Activity of Bacteroides thetaiotaomicron GH92 alpha-mannosidase 2199 assessed as recovery of enzyme activity at 1 mM in presence of 7 mM Ti(3+) ions and in presence of 5 mM EDTA in 100 mM pH 7 MOPS buffer relative to enzyme activity in presence of calcium
[5] = biological target: T1, Alpha-1,2-mannosidase (BT_2199) (Bacteroides thetaiotaomicron); assay: Activity of Bacteroides thetaiotaomicron GH92 alpha-mannosidase 2199 assessed as recovery of enzyme activity at 1 mM in presence of 7 mM V(3+) ions and in presence of 5 mM EDTA in 100 mM pH 7 MOPS buffer relative to enzyme activity in presence of calcium
[6] = biological target: T1, Alpha-1,2-mannosidase (BT_2199) (Bacteroides thetaiotaomicron); assay: Activity of Bacteroides thetaiotaomicron GH92 alpha-mannosidase 2199 assessed as recovery of enzyme activity at 1 mM in absence of metal and in presence of 5 mM EGTA in 100 mM pH 7 MOPS buffer relative to enzyme activity in presence of calcium
[7] = biological target: T1, Alpha-1,2-mannosidase (BT_2199) (Bacteroides thetaiotaomicron); assay: Activity of Bacteroides thetaiotaomicron GH92 alpha-mannosidase 2199 assessed as recovery of enzyme activity at 1 mM in presence of 7 mM Ca(2+) ions and in presence of 5 mM EGTA in 100 mM pH 7 MOPS buffer relative to enzyme activity in presence of calcium
[8] = biological target: T2, Alpha-1,2-mannosidase (BT_3990) (Bacteroides thetaiotaomicron) (UniProt Q8A0N1); assay: Activity of Bacteroides thetaiotaomicron GH92 alpha-mannosidase 3990 assessed as recovery of enzyme activity at 1 mM in presence of 7 mM Mg(2+) ions and in presence of 5 mM EDTA in 100 mM pH 7 MOPS buffer relative to enzyme activity in presence of calcium
T2 sequence (whole entry): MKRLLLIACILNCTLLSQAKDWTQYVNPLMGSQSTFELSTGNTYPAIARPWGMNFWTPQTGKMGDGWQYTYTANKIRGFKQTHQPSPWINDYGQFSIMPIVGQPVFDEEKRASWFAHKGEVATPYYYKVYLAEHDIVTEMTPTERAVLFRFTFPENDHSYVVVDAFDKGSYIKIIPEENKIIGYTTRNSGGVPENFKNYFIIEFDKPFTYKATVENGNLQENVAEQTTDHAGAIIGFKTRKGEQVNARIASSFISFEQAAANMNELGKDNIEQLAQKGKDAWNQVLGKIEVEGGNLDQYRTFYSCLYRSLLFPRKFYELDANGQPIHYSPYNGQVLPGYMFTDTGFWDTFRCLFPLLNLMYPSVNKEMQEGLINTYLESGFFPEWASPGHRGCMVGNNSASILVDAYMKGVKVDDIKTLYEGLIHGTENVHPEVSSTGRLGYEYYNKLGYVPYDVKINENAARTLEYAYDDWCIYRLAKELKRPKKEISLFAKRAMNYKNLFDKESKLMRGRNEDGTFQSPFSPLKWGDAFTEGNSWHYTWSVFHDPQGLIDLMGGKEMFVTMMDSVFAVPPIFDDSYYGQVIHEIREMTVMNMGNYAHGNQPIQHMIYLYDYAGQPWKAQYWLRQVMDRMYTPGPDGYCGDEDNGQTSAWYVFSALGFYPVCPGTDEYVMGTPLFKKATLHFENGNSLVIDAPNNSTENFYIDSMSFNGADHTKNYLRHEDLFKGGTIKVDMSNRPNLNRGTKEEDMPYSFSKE

[9] = biological target: T2, Alpha-1,2-mannosidase (BT_3990) (Bacteroides thetaiotaomicron); assay: Activity of Bacteroides thetaiotaomicron GH92 alpha-mannosidase 3990 assessed as recovery of enzyme activity at 1 mM in presence of 7 mM Ba(2+) ions and in presence of 5 mM EDTA in 100 mM pH 7 MOPS buffer relative to enzyme activity in presence of calcium
[10] = biological target: T2, Alpha-1,2-mannosidase (BT_3990) (Bacteroides thetaiotaomicron); assay: Activity of Bacteroides thetaiotaomicron GH92 alpha-mannosidase 3990 assessed as recovery of enzyme activity at 1 mM in presence of 7 mM Be(2+) ions and in presence of 5 mM EDTA in 100 mM pH 7 MOPS buffer relative to enzyme activity in presence of calcium
[11] = biological target: T2, Alpha-1,2-mannosidase (BT_3990) (Bacteroides thetaiotaomicron); assay: Activity of Bacteroides thetaiotaomicron GH92 alpha-mannosidase 3990 assessed as recovery of enzyme activity at 1 mM in presence of 7 mM Mg(2+) ions and in presence of 5 mM EGTA in 100 mM pH 7 MOPS buffer relative to enzyme activity in presence of calcium
[12] = biological target: T2, Alpha-1,2-mannosidase (BT_3990) (Bacteroides thetaiotaomicron); assay: Activity of Bacteroides thetaiotaomicron GH92 alpha-mannosidase 3990 assessed as recovery of enzyme activity at 1 mM in presence of 7 mM Sr(2+) ions and in presence of 5 mM EGTA in 100 mM pH 7 MOPS buffer relative to enzyme activity in presence of calcium

- Activity [1]: 100%
- Activity [2]: 8%
- Activity [3]: 31%
- Activity [4]: 0%
- Activity [5]: 0%
- Activity [6]: 0%
- Activity [7]: 100%
- Activity [8]: 0%
- Activity [9]: 0%
- Activity [10]: 0%
- Activity [11]: 0%
- Activity [12]: 12%
SMILES: O=[N+]([O-])c1ccc(O[C@H]2O[C@H](CO)[C@@H](O)[C@H](O)[C@@H]2O)cc1
